# Source: patent US20080194585A1, “Fungicidal Pyrazine Derivatives” (priority 2005, published 2008)
# Marks after values point to notes of the source that are not given here.
# Legend:
# Plasmopara viticola = assay: Test D: grape downy mildew, spray after inoculation of grape seedlings; format: in vivo
# Description: Upon removal, disease ratings were made. […] A dash (-) indicates no test results.
# Phytophthora infestans = assay: whole plant or invertebrate; format: in vivo
# Septoria tritici = assay: Test J: wheat leaf blotch, preventive spray on wheat seedlings; format: in vivo
# Description: A dash (-) indicates no test results.
# fusarium graminearium = assay: Test I: wheat head scab, preventive spray on wheat seedlings
# Description: (the causal agent of wheat head scab) and incubated in a saturated atmosphere at 20° C. for 72 h, and then moved to a growth chamber at 22° C. for 5 days, after which disease ratings were made.
# [1] = system: Puccinia recondita f. sp. tritici; assay: Test K: wheat leaf rust, preventive spray on wheat seedlings
# Botrytis cinerea = assay: Test E: tomato botrytis, preventive spray on tomato seedlings
# Septoria nodorum = assay: Test H: wheat glum blotch, preventive spray on wheat seedlings
# Description: (the causal agent of wheat glum blotch) and incubated in a saturated atmosphere at 20° C. for 48 h, and then moved to a growth chamber at 22° C. for 5 days, after which disease ratings were made.
# [2] = system: Erysiphe graminis f. sp. tritici; assay: Test L: wheat powdery mildew, preventive spray on wheat seedlings
# Sclerotinia sclerotiorum = assay: Test C: cucumber white mold, preventive spray on cucumber seedlings
# Pythium aphanidermatum = assay: Test A: bluegrass pythium blight, preventive spray on bluegrass seedlings
# Rhizoctonia oryzae = assay: Test G: turf brown patch, preventive spray on creeping bent grass seedlings
# Description: (the causal agent of turf brown patch) and incubated in a saturated atmosphere at 27° C. for 24 h, and then moved to a growth chamber at 27° C. for 5 days, after which disease ratings were made.
# [3] = system: Colletotrichum orbiculare; assay: Test B: cucumber Colletotrichum anthracnose, preventive spray on cucumber seedlings
SMILES,Test D disease control rating (Plasmopara viticola; 200 ppm),Test F disease control rating (Phytophthora infestans; 200 ppm),Test J disease control rating (Septoria tritici; 40 ppm (*)),Test I disease control rating (fusarium graminearium; 200 ppm),Test K disease control rating ([1]; 40 ppm (*)),Test E disease control rating (Botrytis cinerea; 40 ppm (*)),Test H disease control rating (Septoria nodorum; 40 ppm (*)),Test L disease control rating ([2]; 40 ppm (*)),Test C disease control rating (Sclerotinia sclerotiorum; 200 ppm),Test A disease control rating (Pythium aphanidermatum; 200 ppm),Test G disease control rating (Rhizoctonia oryzae; 40 ppm (*)),Test B disease control rating ([3]; 40 ppm (*)),other results
COCC(C)n1c(-c2c(F)cccc2F)c(Cl)nc(-n2cncn2)c1=O (stereo not drawn) [compound 94],0%,0%,14* %,0%,0* %,0* %,0* %,0* %,0%,0%,0* %,0* %,–
COCCn1c(-c2c(F)cccc2F)c(Cl)nc(-n2cncn2)c1=O [compound 96],0%,0%,0* %,0%,0* %,0* %,0* %,0* %,0%,0%,0* %,0* %,–
CSCCn1c(-c2c(F)cccc2F)c(Cl)nc(-n2cccn2)c1=O [compound 97],64%,0%,24* %,0%,0* %,100* %,0* %,0* %,0%,0%,0* %,0* %,–
CSCCn1c(-c2c(F)cccc2F)c(Cl)nc(-n2cncn2)c1=O [compound 98],0%,0%,26* %,0%,0* %,0* %,0* %,0* %,0%,0%,0* %,0* %,–
O=c1c(-n2cccn2)nc(Cl)c(-c2c(F)cccc2F)n1Cc1ccccc1 [compound 104],9%,0%,–,0%,–,–,–,–,0%,0%,–,–,Test J disease control rating (Septoria tritici; 200 ppm): 100%; Test K disease control rating ([1]; 200 ppm): 100%; Test E disease control rating (Botrytis cinerea; 200 ppm): 100%; Test H disease control rating (Septoria nodorum; 200 ppm): 100%; Test L disease control rating ([2]; 200 ppm): 100%; Test G disease control rating (Rhizoctonia oryzae; 200 ppm): 95%; Test B disease control rating ([3]; 200 ppm): 100%
COc1cc(OC)c(-c2c(Cl)nc(-n3cncn3)c(=O)n2CC(C)C)c(OC)c1 [compound 112],0%,0%,0* %,57%,0* %,0* %,0* %,0* %,0%,0%,0* %,0* %,–
CC(C)Cn1c(-c2c(F)cccc2C(F)(F)F)c(Cl)nc(-n2cncn2)c1=O [compound 113],0%,0%,2* %,98%,0* %,0* %,0* %,0* %,93%,0%,26* %,0* %,–
CC(C)Cn1c(-c2ccc3c(c2)OCO3)c(Cl)nc(-n2cncn2)c1=O [compound 114],0%,0%,89* %,0%,0* %,97* %,99* %,0* %,0%,0%,0* %,0* %,–
CC(C)Cn1c(-c2cc(Br)c3c(c2)OCO3)c(Cl)nc(-n2cncn2)c1=O [compound 115],0%,0%,0* %,0%,0* %,0* %,0* %,0* %,0%,0%,0* %,0* %,–
CC(C)Cn1c(-c2cc(Cl)cc(Cl)c2)c(Cl)nc(-n2cncn2)c1=O [compound 116],0%,53%,5* %,0%,0* %,0* %,0* %,0* %,0%,0%,0* %,0* %,–
CC(C)Cn1c(-c2ccc(C(F)(F)F)cc2F)c(Cl)nc(-n2cncn2)c1=O [compound 117],0%,0%,2* %,83%,0* %,0* %,0* %,0* %,0%,0%,0* %,0* %,–
CC(C)Cn1c(-c2ccc(Cl)cc2Cl)c(Cl)nc(-n2cncn2)c1=O [compound 118],0%,16%,–,81%,–,–,–,–,98%,0%,–,–,Test J disease control rating (Septoria tritici; 200 ppm): 100%; Test K disease control rating ([1]; 200 ppm): 91%; Test E disease control rating (Botrytis cinerea; 200 ppm): 99%; Test H disease control rating (Septoria nodorum; 200 ppm): 92%; Test L disease control rating ([2]; 200 ppm): 0%; Test G disease control rating (Rhizoctonia oryzae; 200 ppm): 71%; Test B disease control rating ([3]; 200 ppm): 96%
CC(C)Cn1c(-c2ccc3ccccc3c2)c(Cl)nc(-n2cncn2)c1=O [compound 119],0%,0%,68* %,76%,0* %,0* %,0* %,0* %,0%,0%,0* %,0* %,–
CC(C)Cn1c(-c2c(Cl)ccc(Cl)c2Cl)c(Cl)nc(-n2cncn2)c1=O [compound 120],0%,0%,91* %,86%,55* %,99* %,64* %,0* %,93%,0%,0* %,0* %,–
COC(=O)Cn1c(-c2c(F)cccc2F)c(Cl)nc(-n2cccn2)c1=O [compound 122],–,–,7* %,–,28* %,49* %,0* %,0* %,–,–,16* %,0* %,Test D disease control rating (Plasmopara viticola; 40 ppm (*)): 58* %; Test F disease control rating (Phytophthora infestans; 40 ppm (*)): 0* %; Test I disease control rating (fusarium graminearium; 40 ppm (*)): 0* %; Test C disease control rating (Sclerotinia sclerotiorum; 40 ppm (*)): 0* %; Test A disease control rating (Pythium aphanidermatum; 40 ppm (*)): 0* %
COC(=O)Cn1c(-c2c(F)cccc2F)c(Cl)nc(-n2cncn2)c1=O [compound 123],–,–,19* %,–,0* %,0* %,0* %,0* %,–,–,0* %,0* %,Test D disease control rating (Plasmopara viticola; 40 ppm (*)): 0* %; Test F disease control rating (Phytophthora infestans; 40 ppm (*)): 0* %; Test I disease control rating (fusarium graminearium; 40 ppm (*)): 0* %; Test C disease control rating (Sclerotinia sclerotiorum; 40 ppm (*)): 0* %; Test A disease control rating (Pythium aphanidermatum; 40 ppm (*)): 0* %
